Results published in US6825172B2, “3-descladinosyl-6-O-carbamoyl and 6-O-carbonoyl macrolide antibacterial agents” (Janssen Pharmaceutica, NV, priority 2002, dated 2004).
Values after ≈ are worked out from the molar mass of the structure shown. Read-outs that look alike come from different tables or passages of the source.

How the values were obtained:
Experiment in all cases: MIC, microdilution broth method (NCCLS)
Assay type in all cases: cell-based
[1] = tested on: E. coli OC2605; conditions: Escherichia coli, Table 1, 6-Carbamoyl-3-Acyl Macrolide Derivatives, read-out: MIC Values, A: E. coli OC2605
Description: (§1) Minimal inhibitory concentration (MIC) has been an indicator of in vitro antibacterial activity widely used in the art. The in vitro antimicrobial activity of the compounds was determined by the microdilution broth method following the test method from the National Committee for Clinical Laboratory Standards (NCCLS). This method is described in the NCCLS Document M7-A4, Vol.17, No.2, “Methods for Dilution Antimicrobial Susceptibility Test for Bacteria that Grow Aerobically—Fourth Edition”, which is incorporated herein by reference.
(§2) In this method two-fold serial dilutions of drug in cation adjusted Mueller-Hinton broth are added to wells in microdilution trays. The test organisms are prepared by adjusting the turbidity of actively growing broth cultures so that the final concentration of test organism after it is added to the wells is approximately 5×10^4 CFU/well.
(§3) Following inoculation of the microdilution trays, the trays are incubated at 35 °C for 16-20 hours and then read. […] The amount of growth in the wells containing the test compound is compared with the amount of growth in the growth-control wells (no test compound) used in each tray. As set forth in Table 1, compounds of the present invention were tested against a variety of Gram positive and Gram negative pathogenic bacteria resulting in a range of activities depending on the organism tested.

[2] = tested on: E. faecalis ATCC29212; conditions: Enterococcus faecalis, read-out: MIC Values, C: E. faecalis ATCC29212
Description: as §1, §2, §3

[3] = tested on: H. influenzae ATCC49247; conditions: Haemophilus influenzae, Table 1, 6-Carbamoyl-3-Acyl Macrolide Derivatives, read-out: MIC Values, E: H. influenzae ATCC49247
Description: as §1, §2, §3

[4] = tested on: S. pneumoniae ATCC49619; conditions: Streptococcus pneumoniae, read-out: MIC Values, D: S. pneumoniae ATCC49619
Description: as §1, §2, §3

[5] = tested on: S. aureus ATCC29213; conditions: Staphylococcus aureus, read-out: MIC Values, B: S. aureus ATCC29213
Description: as §1, §2, §3

[6] = Table 1, 6-Carbamoyl-3-Acyl Macrolide Derivatives
[7] = Table 2, 3,6-Dicarbamoyl Macrolide Derivatives
[8] = Table 3, 6-Carbonate Macrolide Derivatives

CC[C@H]1OC(=O)[C@H](C)[C@@H](OC(=O)C(C)C)[C@H](C)[C@@H](O[C@@H]2O[C@H](C)C[C@H](N(C)C)[C@H]2O)[C@](C)(OC(=O)NC/C=C/c2ccc(-c3ncccn3)cc2)C[C@@H](C)C(=O)[C@H](C)[C@H]2NC(=O)O[C@@]21C [Compound 1, Propanoic acid, 2-methyl-, (3aS,4R,7R,8S,9S,10R, 11R,13R,15R,15aR)-4-ethyltetradecahydro-3a,7,9,11,13,15-hexamethyl-2,6,14-trioxo-11-[[[[(2E)-3-[4-(2-pyrimidinyl)phenyl]-2-propenyl]amino]carbonyl]oxy]-10-[[3,4,6-trideoxy-3-(dimethylamino)-β-D-xylo-hexopyranosyl]oxy]-2H-oxacyclotetradecino[4,3-d]oxazol-8-yl ester]
MIC [1]: 16 µg/mL (≈ 17.6 µM) | MIC [2, 6]: 0.25 µg/mL (≈ 0.275 µM) | MIC [3]: 1 µg/mL (≈ 1.1 µM) | MIC [4, 6]: 0.06 µg/mL (≈ 0.0661 µM) | MIC [5, 6]: 0.5 µg/mL (≈ 0.551 µM)

CC[C@H]1OC(=O)[C@H](C)[C@@H](OC(=O)Cc2ccccn2)[C@H](C)[C@@H](O[C@@H]2O[C@H](C)C[C@H](N(C)C)[C@H]2O)[C@](C)(OC(=O)NC/C=C/c2ccc(-c3ncccn3)cc2)C[C@@H](C)C(=O)[C@H](C)[C@H]2NC(=O)O[C@@]21C [Compound 2]
MIC [1]: 16 µg/mL (≈ 16.7 µM) | MIC [2, 6]: 0.25 µg/mL (≈ 0.261 µM) | MIC [3]: 1 µg/mL (≈ 1.04 µM) | MIC [5, 6]: 0.5 µg/mL (≈ 0.522 µM)

CC[C@H]1OC(=O)[C@H](C)[C@@H](OC(=O)CCc2cccnc2)[C@H](C)[C@@H](O[C@@H]2O[C@H](C)C[C@H](N(C)C)[C@H]2O)[C@](C)(OC(=O)NC/C=C/c2ccc(-c3ncccn3)cc2)C[C@@H](C)C(=O)[C@H](C)[C@H]2NC(=O)O[C@@]21C [Compound 3]
MIC [1]: > 16 µg/mL | MIC [2, 6]: 0.25 µg/mL (≈ 0.257 µM) | MIC [3]: 2 µg/mL (≈ 2.06 µM) | MIC [4, 6]: 0.06 µg/mL (≈ 0.0618 µM) | MIC [5, 6]: 0.5 µg/mL (≈ 0.515 µM)

CC[C@H]1OC(=O)[C@H](C)[C@@H](OC(=O)Cc2cccnc2)[C@H](C)[C@@H](O[C@@H]2O[C@H](C)C[C@H](N(C)C)[C@H]2O)[C@](C)(OC(=O)NC/C=C/c2ccc(-c3ncccn3)cc2)C[C@@H](C)C(=O)[C@H](C)[C@H]2NC(=O)O[C@@]21C [Compound 4, 3-Pyridineacetic acid, (3aS,4R,7R,8S,9S,10R,11R,13R,15R,15aR)-4-ethyltetradecahydro-3a,7,9,11,13,15-hexamethyl-2,6,14-trioxo-11-[[[[(2E)-3-[4-(2-pyrimidinyl)phenyl]-2-propenyl]amino]carbonyl]oxy]-10-[[3,4,6-trideoxy-3-(dimethylamino)-β-D-xylo-hexopyranosyl]oxy]-2H-oxacyclotetradecino[4,3-d]oxazol-8-yl ester]
MIC [1]: 8 µg/mL (≈ 8.36 µM) | MIC [2, 6]: 0.25 µg/mL (≈ 0.261 µM) | MIC [3]: 2 µg/mL (≈ 2.09 µM) | MIC [4, 6]: 0.06 µg/mL (≈ 0.0627 µM) | MIC [5, 6]: 0.25 µg/mL (≈ 0.261 µM)

CC[C@H]1OC(=O)[C@H](C)[C@@H](OC(=O)c2cnccn2)[C@H](C)[C@@H](O[C@@H]2O[C@H](C)C[C@H](N(C)C)[C@H]2O)[C@](C)(OC(=O)NC/C=C/c2ccc(-c3ncccn3)cc2)C[C@@H](C)C(=O)[C@H](C)[C@H]2NC(=O)O[C@@]21C [Compound 5]
MIC [1]: > 16 µg/mL | MIC [2, 6]: 0.5 µg/mL (≈ 0.53 µM) | MIC [3]: 8 µg/mL (≈ 8.47 µM) | MIC [4, 6]: 0.06 µg/mL (≈ 0.0636 µM) | MIC [5, 6]: 0.5 µg/mL (≈ 0.53 µM)

CC[C@H]1OC(=O)[C@H](C)[C@@H](OC(=O)N(CC)CC)[C@H](C)[C@@H](O[C@@H]2O[C@H](C)C[C@H](N(C)C)[C@H]2O)[C@](C)(OC(=O)NC/C=C/c2ccc(-c3ccn(C)n3)cc2)C[C@@H](C)C(=O)[C@H](C)[C@H]2NC(=O)O[C@@]21C [Compound 73]
MIC [2, 7]: 0.5 µg/mL (≈ 0.532 µM) | MIC [4, 7]: 0.12 µg/mL (≈ 0.128 µM) | MIC [5, 7]: 1 µg/mL (≈ 1.06 µM)

CC[C@H]1OC(=O)[C@H](C)[C@@H](OC(=O)N(CC)CC)[C@H](C)[C@@H](O[C@@H]2O[C@H](C)C[C@H](N(C)C)[C@H]2OC(C)=O)[C@](C)(OC(=O)OC/C=C/c2ccc(-c3ncccn3)cc2)C[C@@H](C)C(=O)[C@H](C)[C@H]2NC(=O)O[C@@]21C [Compound 75]
MIC [2, 8]: 0.5 µg/mL (≈ 0.51 µM) | MIC [4, 8]: 0.25 µg/mL (≈ 0.255 µM) | MIC [5, 8]: 1 µg/mL (≈ 1.02 µM)

CC[C@H]1OC(=O)[C@H](C)[C@@H](OC(=O)Cc2cccnc2)[C@H](C)[C@@H](O[C@@H]2O[C@H](C)C[C@H](N(C)C)[C@H]2O)[C@](C)(OC(=O)OC/C=C/c2ccc(-c3cnccn3)cc2)C[C@@H](C)C(=O)[C@H](C)[C@H]2NC(=O)O[C@@]21C [Compound 77]
MIC [2, 8]: 0.5 µg/mL (≈ 0.522 µM) | MIC [4, 8]: 0.06 µg/mL (≈ 0.0626 µM) | MIC [5, 8]: 1 µg/mL (≈ 1.04 µM)

CC[C@H]1OC(=O)[C@H](C)[C@@H](OC(=O)Cc2cccnc2)[C@H](C)[C@@H](O[C@@H]2O[C@H](C)C[C@H](N(C)C)[C@H]2O)[C@](C)(OC(=O)OC/C=C/c2ccc(-c3ncccn3)cc2)C[C@@H](C)C(=O)[C@H](C)[C@H]2NC(=O)O[C@@]21C [Compound 78]
MIC [2, 8]: 0.25 µg/mL (≈ 0.261 µM) | MIC [4, 8]: 0.03 µg/mL (≈ 0.0313 µM) | MIC [5, 8]: 0.25 µg/mL (≈ 0.261 µM)

CC[C@H]1OC(=O)[C@H](C)[C@@H](OC(=O)Cc2cccnc2)[C@H](C)[C@@H](O[C@@H]2O[C@H](C)C[C@H](N(C)C)[C@H]2O)[C@](C)(OC(=O)OC/C=C/c2ccc(-c3cccnn3)cc2)C[C@@H](C)C(=O)[C@H](C)[C@H]2NC(=O)O[C@@]21C [Compound 79, 3-Pyridineacetic acid, (3aS,4R,7R,8S,9S,10R,11R,13R,15R,15aR)-4-ethyltetradecahydro-3a,7,9,11,13,15-hexamethyl-2,6,14-trioxo-11-[[[[(2E)-3-[4-(3-pyridazinyl)phenyl]-2-propenyl]oxy]carbonyl]oxy]-10-[[3,4,6-trideoxy-3-(dimethylamino)-β-D-xylo-hexopyranosyl]oxy]-2H-oxacyclotetradecino[4,3-d]oxazol-8-yl ester]
MIC [2, 8]: 0.5 µg/mL (≈ 0.522 µM) | MIC [4, 8]: 0.06 µg/mL (≈ 0.0626 µM) | MIC [5, 8]: 1 µg/mL (≈ 1.04 µM)

CC[C@H]1OC(=O)[C@H](C)[C@@H](OC(=O)Cc2cccnc2)[C@H](C)[C@@H](O[C@@H]2O[C@H](C)C[C@H](N(C)C)[C@H]2O)[C@](C)(OC(=O)OC/C=C/c2cnc3ccccc3c2)C[C@@H](C)C(=O)[C@H](C)[C@H]2NC(=O)O[C@@]21C [Compound 80]
MIC [2, 8]: 0.5 µg/mL (≈ 0.537 µM) | MIC [4, 8]: 0.06 µg/mL (≈ 0.0644 µM) | MIC [5, 8]: 1 µg/mL (≈ 1.07 µM)

CC[C@H]1OC(=O)[C@H](C)[C@@H](OC(=O)Cc2cccnc2)[C@H](C)[C@@H](O[C@@H]2O[C@H](C)C[C@H](N(C)C)[C@H]2O)[C@](C)(OC(=O)OCC#Cc2ccc(-c3ncccn3)cc2)C[C@@H](C)C(=O)[C@H](C)[C@H]2NC(=O)O[C@@]21C [Compound 81]
MIC [2, 8]: 0.25 µg/mL (≈ 0.261 µM) | MIC [4, 8]: 0.06 µg/mL (≈ 0.0628 µM) | MIC [5, 8]: 0.5 µg/mL (≈ 0.523 µM)

CC[C@H]1OC(=O)[C@H](C)[C@@H](OC(=O)C(C)C)[C@H](C)[C@@H](O[C@@H]2O[C@H](C)C[C@H](N(C)C)[C@H]2O)[C@](C)(OC(=O)OC/C=C/c2ccc(-c3cccnn3)cc2)C[C@@H](C)C(=O)[C@H](C)[C@H]2NC(=O)O[C@@]21C [Compound 82]
MIC [2, 8]: 0.5 µg/mL (≈ 0.55 µM) | MIC [4, 8]: 0.06 µg/mL (≈ 0.066 µM) | MIC [5, 8]: 0.5 µg/mL (≈ 0.55 µM)

CC[C@H]1OC(=O)[C@H](C)[C@@H](OC(=O)N(CC)CC)[C@H](C)[C@@H](O[C@@H]2O[C@H](C)C[C@H](N(C)C)[C@H]2O)[C@](C)(OC(=O)OC/C=C/c2ccc(-c3cccnn3)cc2)C[C@@H](C)C(=O)[C@H](C)[C@H]2NC(=O)O[C@@]21C [Compound 83, Carbonic acid, (3aS,4R,7R,8S,9S,10R,11R,13R,15R,15aR)-8-[[(diethylamino)carbonyl]oxy]-4-ethyltetradecahydro-3a,7,9,11,13,15-hexamethyl-2,6,14-trioxo-10-[[3,4,6-trideoxy-3-(dimethylamino)-β-D-xylo-hexopyranosyl]oxy]-2H-oxacyclotetradecino[4,3-d]oxazol-11-yl(2E)-3-[4-(3-pyridazinyl)phenyl]-2-propenyl ester]
MIC [2, 8]: 0.5 µg/mL (≈ 0.533 µM) | MIC [4, 8]: 0.06 µg/mL (≈ 0.064 µM) | MIC [5, 8]: 1 µg/mL (≈ 1.07 µM)

CC[C@H]1OC(=O)[C@H](C)[C@@H](OC(=O)N(CC)CC)[C@H](C)[C@@H](O[C@@H]2O[C@H](C)C[C@H](N(C)C)[C@H]2O)[C@](C)(OC(=O)OC/C=C/c2ccc(-c3cnccn3)cc2)C[C@@H](C)C(=O)[C@H](C)[C@H]2NC(=O)O[C@@]21C [Compound 85]
MIC [2, 8]: 0.5 µg/mL (≈ 0.533 µM) | MIC [4, 8]: 0.03 µg/mL (≈ 0.032 µM) | MIC [5, 8]: 0.5 µg/mL (≈ 0.533 µM)

CC[C@H]1OC(=O)[C@H](C)[C@@H](OC(=O)C(C)C)[C@H](C)[C@@H](O[C@@H]2O[C@H](C)C[C@H](N(C)C)[C@H]2O)[C@](C)(OC(=O)OC/C=C/c2cnc3ccccc3c2)C[C@@H](C)C(=O)[C@H](C)[C@H]2NC(=O)O[C@@]21C [Compound 86]
MIC [2, 8]: 0.5 µg/mL (≈ 0.567 µM) | MIC [4, 8]: 0.06 µg/mL (≈ 0.068 µM) | MIC [5, 8]: 1 µg/mL (≈ 1.13 µM)
